Results from patent US8507546B2, “Use of inhibitors of scavenger receptor class proteins for the treatment of infectious diseases” (Instituto de Medicina Molecular, Faculdade de Medicina da …, priority 2006, dated 2013).

Key:
Plasmodium berghei ANKA = test: Inhibition of EEF development in Huh-7 human hepatoma cells infected with sporozoites (immunofluorescence microscopy); assay type: cell-based; settings: compound at 8 μM, 1.6 μM, 320 nM, 64 nM, 1 h before infection with 10,000 sporozoites per well
Excerpt: To model this infection, the inventors have developed an assay monitoring infection and maturation of Plasmodium berghei ANKA, a mouse-pathogenic close relative of the human-pathogenic Plasmodium falciparum strain, in cultured human hepatoma cells. Huh human hepatoma cells, were cultivated in RPMI (Gibco/Invitrogen) medium containing 10% FBS, 1% non-essential amino acid solution (Gibco/Invitrogen), 1% penicillin/streptomycin solution (Gibco/Invitrogen), 1% glutamine (Gibco/Invitrogen) and 1% Hepes pH 8 (Gibco/Invitrogen). 4000-6000 cells per well were seeded in a volume of 100 μl/well. Sporozoites were obtained from Anopheles stephensi mosquitoes infected with P. berghei ANKA or P. yoelii. Salivary glands were dissected and collected in RPMI medium (GIBCO) on ice. Collected tissues were gently ground in the medium to release sporozoites. Tissue fragments were removed by centrifugation at 40×g for 3 min, and sporozoites were collected from the supernatant. Blt-1, Blt-2, and Blt-4 were purchased from ChemBridge Corporation (San Diego, USA). Ezetimibe (for chemical structure see FIG. 6 and structure (XXVI)) was derived from powdered Ezeterol tablets (Essex Pharma, UK). Each compound was dissolved in DMSO at a final concentration of 50 mM. 48 hours after seeding of 6000 Huh-7 cells per well, growth medium was replaced by fresh complete culture medium, containing the compounds in 4 different concentrations, generated by dilution series of the compound stock solutions in complete growth medium: 8 μM; 1.6 μM; 320 nM; 64 nM. […] Cells were imaged using a fully automated fluorescence microscope from MDC (Molecular Devices Corporation, CA, USA). […] Numerical readouts comprised of cell proliferation as measured by the number of nuclei per imaged field (Hoechst staining), cell confluency as measured by the percentage of the imaged field covered by cells (actin/Phalloidin staining), and number of EEFs per imaged field. […] Objects in a size range of 16-150 pixels were quantified. […]

P. berghei ANKA = test: Liver infection in mice, parasite 18S RNA by Real-Time PCR; assay type: in vivo, Plasmodium berghei; settings: C57Bl/6 mice
Procedure: Ezeterol tablets were used to prepare a 0.3 mg/ml solution of Ezetimibe in water. Experimental C5781/6 mice were treated by oral gavage with 200 μl of Ezetimibe solution (3 mg/kg) 2 hours prior to infection with sporozoites. To control mice, 200 μl of water were administered by oral gavage. Infection with Plasmodium berghei was performed by i.v. injection of 30 000 sporozoites (see FIG. 5). For BLT-1 treatment of C57Bl/6 mice (male, 6-8 weeks old), intra-peritoneal injections of 50 mg/kg of BLT-1 in DMSO were carried out prior to infection. Control mice were treated with DMSO only. Two hours later, mice were infected by intravenous injection with 3×10^4 P. berghei sporozoites (see FIG. 12).
Mice were sacrificed 40-42 hours after infection and their livers collected. Livers were placed in 4 ml cold lysis buffer (4 M guanidine thio-cyanate, 25 mM sodium citrate, pH 7.0 and 0.5% sarcosyl) and homogenised on ice with a tissue tearer. 1 ml aliquots of liver homogenate were kept at −80° C. until RNA extraction. Total RNA was extracted from 50 μl of liver homogenate with Qiagen's RNeasy RNA extraction kit following the instructions of the manufacturer. […]
P. berghei ANKA load and ScarB1 expression in the liver was quantified by Real-Time PCR using the SYBR Green Mix (Applied Biosystems) and primers designed for the 18S RNA of the parasite and primers for ScarB1. […]

P. berghei = test: EEF development in mouse primary hepatocytes infected with P. berghei sporozoites; assay type: cell-based, Plasmodium berghei; settings: 10 μM; full 24 hours of infection, first 2 hours only, or 2 hours after infection until 24 hours
Procedure: C57B1/6 freshly isolated mouse primary hepatocytes (1×10^5 cells per well) were seeded in 700 μl of Williams E medium supplemented with 1× glutamax (Gibco/Invitrogen), 4% fetal calf serum (Gibco/Invitrogen) and 1% penicillin/streptomycin (Gibco/Invitrogen) in 24 well plates incubated at 37° C. 5% CO2. After two days cells were treated with 10 μM BLT-1 for different time points: for the full 24 hours of infection with P. berghei (5×10^5 sporozoites), only during the first 2 hours of infection, or for the time of 2 hours after infection until evaluation at 24 hours. (see FIG. 14)

P. yoelii = P. yoelii EEF development in Hepa 1-6 cells; assay type: cell-based, Plasmodium yoelii; settings: 10 μM; full 24 hours of infection, first 2 hours only, or 2 hours after infection until 24 hours
Procedure: Hepa 1-6 cells were cultured in complete DMEM medium (Gibco/Invitrogen) supplemented with 10% fetal calf serum (Gibco/Invitrogen) and 1% penicillin/streptomycin (Gibco/Invitrogen) incubated at 37° C. and 5% CO2. Sporozoites were obtained from Anopheles stephensi mosquitoes infected with P. berghei ANKA or P. yoelii. Salivary glands were dissected and collected in RPMI medium (GIBCO) on ice. Collected tissues were gently ground in the medium to release sporozoites. Tissue fragments were removed by centrifugation at 40×g for 3 min, and sporozoites were collected from the supernatant. Cells were treated with 10 μM BLT-1 for different time points: for the full 24 hours of infection with P. yoelii (1×10^5 sporozoites), only during the first 2 hours of infection, or for the time of 2 hours after infection until evaluation of infection at 24 hours (see FIG. 15).

Row | SMILES | EEF (Exo-Erythrocytic Forms) development, EEF number (Plasmodium berghei ANKA) | infection rate for liver in mice (P. berghei ANKA; 50 mg/kg intra-peritoneal in DMSO two hours before i.v. infection with 3×10^4 P. berghei sporozoites) | EEF development in Mouse Primary Hepatocytes (P. berghei) | P. Yoelii EEF development in Hepa 1-6 cells (P. yoelii) | infection rate for liver in mice (P. berghei ANKA; 3 mg/kg oral gavage 2 hours prior to i.v. infection with 30 000 sporozoites, livers 40-42 hours after infection)
1 | CCCCCCC1CCC/C1=N\NC(N)=S (stereo not shown) [BLT-1] | Inhibition of EEF (Exo-Erythrocytic Forms) development | reduces infection rate for liver | Inhibition of EEF development | Inhibition of P. Yoelii EEF development | –
2 | COc1ccccc1NC(=O)Nc1ccc2ccccc2c1 [BLT-4] | Inhibition of EEF development | – | – | – | –
3 | O=C1[C@H](CC[C@H](O)c2ccc(F)cc2)[C@@H](c2ccc(O)cc2)N1c1ccc(F)cc1 [Ezetimibe] | Inhibition of EEF development | – | – | – | reduces infection rate for liver
